{"source": "patent US6949522B2", "about": "“β-2′- or 3′-halonucleosides” (Pharmasset, Inc., priority 2001, dated 2005)", "format_in_all_cases": "cell-based, human", "conditions_in_all_cases": "HepG2, 10 μM, 7 days", "key": {"[1]": {"tested_on": "mitochondrial cytochrome C oxidase subunit II (COXII) gene", "source_text": "The Q-RT-PCR technology was also used to evaluate potential mitochondrial γ-DNA polymerase inhibition by the compounds of the present invention in relevant human cells. […] Since active nucleoside compounds in the triphosphate form lack a 3′-OH, thereby stopping virus replication by chain termination, there is a concern that these nucleoside analogues are also substrates for the human DNA polymerase γ, resulting in inhibition of mitochondrial DNA replication and subsequently toxic side effects (11, 19). In an attempt to provide direct quantifiable data on mitochondrial DNA levels intracellular, a Q-PCR technology was designed and relative quantification of COXII DNA levels were calculated using the comparative Ct method. […] Also, in agreement with previous observations, no changes in normalized mitochondrial DNA levels were observed after FIAU and D4T treatment (6, 8, 23).\n(§1) Low passage number HepG2 cells, obtained from American Tissue Culture Collection (ATCC, Manassas, Va.) were seeded at 5,000 cells/well in collagen-coated 96-well plates. Test compounds were added to the media to obtain a final concentration of 10 μM. On culture day 7, cellular nucleic acids were prepared by using commercially available columns (RNeasy 96 kit, Qiagen). […] The mitochondrial cytochrome C oxidase subunit II (COXII) gene and the β-actin or rRNA gene were amplified from 5 μL with a multiplex Q-PCR protocol using the suitable primers and probes for both target and reference (designed using the Primer Express software, Applied Biosystems); • for COXII. • sense primer 5′-[…]-3′ (Sequence 7); • probe 5′-TET-[…]-TAMRA-3′ (Sequence 8); and • antisense probe 5′-[…]-3′ (Sequence 9); • for exon 3 of β-actin (GenBank E01094): • sense primer 5′-[…]-3′ (Sequence 10); • probe 5′-6FAM-[…]-TAMRA-3′ (Sequnece 11); and • antisense probe 5′-[…]-3′ (Sequence 12).\n(§2) The rRNA gene primers and probes were purchased from Applied Biosystems. Standard curves using 1-log diluted total HepG2 DNA were linear over more than 5 logs. In addition, efficiencies of target (COXII DNA) and reference (β-actin DNA or rRNA) amplification were approximately equal, because the slope of the ΔCt line (Ct β-actin minus Ct mitochondrial) was less than 0.1 (not shown). Since equal amplification efficiencies were obtained for both genes, the comparative cycle threshold (Ct) method was used to investigate potential inhibition of the mitochondrial DNA polymerase γ. The comparative Ct method uses arithmetic formulas in which the amount of target (COXII gene) is normalized to an endogenous reference (β-actin gene or rRNA gene) and is relative to a calibrator (no drug control at day 7). The arithmetic formula for this approach is given by 2-ΔΔCt (User bulletin # 2, Applied Biosystems).\n(§3) In order to study the consequences of possible inhibitory effects of these compounds on host DNA polymerases, nuclear and rnitochondrial DNA levels were quantified and compared to no-treatment controls. Cells were incubated for 7 days with 10 μM of each compound, followed by total nucleic acid extractions and multiplex Q-PCR of the rRNA gene and the mitochondrial COXII gene. Nucleic acids from cells exposed to the control compounds were also amplified in multiplex for mitDNA and the β-actin gene. The results are presented in Table 4 using the comparative Ct method."}, "rRNA gene": {"tested_on": "rRNA gene", "procedure": "Low passage number HepG2 cells, obtained from American Tissue Culture Collection (ATCC, Manassas, Va.) were seeded at 5,000 cells/well in collagen-coated 96-well plates. Test compounds were added to the media to obtain a final concentration of 10 μM. On culture day 7, cellular nucleic acids were prepared by using commercially available columns (RNeasy 96 kit, Qiagen).\nThe rRNA gene primers and probes were purchased from Applied Biosystems. […] The comparative Ct method uses arithmetic formulas in which the amount of target (COXII gene) is normalized to an endogenous reference (β-actin gene or rRNA gene) and is relative to a calibrator (no drug control at day 7). The arithmetic formula for this approach is given by 2-ΔΔCt (User bulletin # 2, Applied Biosystems).\nas §3, with “gene.” for “gene. The results are presented in Table 4 using the comparative Ct method.”"}, "β-actin gene": {"tested_on": "β-actin gene", "procedure": "as §1, §2, §3"}}, "note": "Marks after values point to notes of the source that are not given here.", "data": [{"compound": "Nc1ccn(C2CSC(CO)O2)c(=O)n1", "note": "(single isomer, unassigned; (+)) [(+)-BCH-189, (+)-β-2′,3′-dideoxy-3′-thiacytidine]", "values": [{"measurement": "COXIINrDNA (range) relative to control", "setting": "[1]; COXII DNA normalized to rDNA, 2-ΔΔCt", "value": "0.20 (0.13-0.32)"}, {"measurement": "COXIINβ-actin DNA (range) relative to control", "setting": "[1]; COXII DNA normalized to β-actin DNA, 2-ΔΔCt", "value": "0.17 (0.14-0.22)"}, {"measurement": "Average ΔΔCt ± SD COXII-rDNA", "setting": "[1]", "value": "2.3 ± 0.66^d"}, {"measurement": "Average ΔΔCt ± SD COXII-β-actin", "setting": "[1]", "value": "2.53 ± 0.36^d"}, {"measurement": "effect on (normalized) mitochondrial COXII DNA levels, in words", "setting": "[1]", "value": "reduce rnitochondrial COXII DNA levels"}, {"measurement": "Average ΔCt ± SD rDNA", "setting": "rRNA gene", "value": "−0.14 ± 0.61"}, {"measurement": "Average ΔΔCt ± SD rDNA-β-actin", "setting": "rRNA gene", "value": "0.23 ± 0.39"}, {"measurement": "Average ΔCt ± SD β-actin DNA", "setting": "β-actin gene", "value": "−0.36 ± 0.31"}]}]}
